Reference: patent US20140094505A1, “BIOMARKERS FOR ASSESSING TREATMENT OF SIALIC ACID DEFICIENCY DISEASES AND CONDITIONS” (Ultragenyx Pharmaceutical Inc., priority 2012, published 2014)

Test system: serum biomarkers (SAT biomarkers)
Assay: Phase 2: change (delta) in serum biomarker levels between week 0 and week 24 per dosage group (placebo, 3 g/day, 6 g/day), Human Discovery MAP250+ v2.0
Type: in vivo
Design: key to overall trend, Epithelial-Derived Neutrophil-Activating Protein 78 (ENA-78) / overall trend, Lactoylglutathione lyase (LGL) / overall trend, Latency-Associated Peptide of Transforming Growth Factor beta 1 (LAP TGF-b1) / overall trend, Macrophage Colony-Stimulating Factor 1 (M-CSF) / overall trend, Matrix Metalloproteinase-9, total (MMP-9, total) / overall trend, Myoglobin / overall trend, Neuronal Cell Adhesion Molecule (Nr-CAM) / overall trend, Plasminogen Activator Inhibitor 1 (PAI-1) / overall trend, Receptor tyrosine-protein kinase erbB-3 (ErbB3) / overall trend, Vascular Endothelial Growth Factor C (VEGF-C) / overall trend, Chromogranin-A (CgA): normalization: level moved toward normal level and the change in 6 g/day group was larger compared to placebo; stabilization: level might still move away from normal level but at a slower rate in 6 g/day group compared to placebo
Settings: HIBM patients
Protocol: Forty-seven (47) HIBM patient serum samples collected at week 24 from phase 2 study were tested using the Human Discovery MAP250+ v2.0 quantitative immunoassay system developed by Myriad RBM. The results were compared to the serum samples of the same 47 HIBM patients collected at week 0 (baseline) which were conducted earlier with the same immunoassay system.
Patients were unblinded and the results were organized into the 3 assigned dosage groups, placebo (n=14), 3 g/day (n=17) and 6 g/day (n=14). The major focus of the analysis was 1) to assess changes (delta, Δ) in levels of analytes between baseline and week 24 in each dosage group, 2) whether the changes correlate to dosage levels.
Analytes were excluded from analysis if […] of the HIBM patient samples were below least detectable dose (LDD). Within each dosage group, individual values with >5× difference to the mean of the dosage group were considered as outliers and thus removed from analysis.
Upon treatment, levels of these analytes show an overall trend of either stabilization or normalization. […] For example, LAP TGF-b1 is an example of biomarker showing trend of normalization when the baseline level in HIBM patients is higher than normal controls, see FIG. 2. NCAM is another example of biomarker showing trend of normalization when the baseline level in HIBM patients is lower than normal controls, see FIG. 3.

With `CC(=O)N[C@H]1[C@H]([C@H](O)[C@H](O)CO)OC(O)(C(=O)O)C[C@@H]1O` (stereo partly drawn) [Sialic Acid, 5-N-acetylneuraminic acid] the “average Δweek 0-24 (3 g/day), Chromogranin-A (CgA)” value (3 g/day, week 0 to week 24) was 64.00 ng/mL, the “average Δweek 0-24 (3 g/day), Epithelial-Derived Neutrophil-Activating Protein 78 (ENA-78)” value (3 g/day, week 0 to week 24) was -0.26 ng/mL and the “average Δweek 0-24 (3 g/day), Lactoylglutathione lyase (LGL)” value (3 g/day, week 0 to week 24) was 0.25 ng/mL. The “average Δweek 0-24 (3 g/day), Latency-Associated Peptide of Transforming Growth Factor beta 1 (LAP TGF-b1)” value (3 g/day, week 0 to week 24) was -0.44 ng/mL, the “average Δweek 0-24 (3 g/day), Macrophage Colony-Stimulating Factor 1 (M-CSF)” value (3 g/day, week 0 to week 24) was 0.10 ng/mL and the “average Δweek 0-24 (3 g/day), Matrix Metalloproteinase-9, total (MMP-9, total)” value (3 g/day, week 0 to week 24) was 449.18 ng/mL. The “average Δweek 0-24 (3 g/day), Myoglobin” value (3 g/day, week 0 to week 24) was -48.88 ng/mL, the “average Δweek 0-24 (3 g/day), Neuronal Cell Adhesion Molecule (Nr-CAM)” value (3 g/day, week 0 to week 24) was -0.07 ng/mL and the “average Δweek 0-24 (3 g/day), Plasminogen Activator Inhibitor 1 (PAI-1)” value (3 g/day, week 0 to week 24) was 0.82 ng/mL. The “average Δweek 0-24 (3 g/day), Receptor tyrosine-protein kinase erbB-3 (ErbB3)” value (3 g/day, week 0 to week 24) was -0.28 ng/mL, the “average Δweek 0-24 (3 g/day), Vascular Endothelial Growth Factor C (VEGF-C)” value (3 g/day, week 0 to week 24) was 1.35 ng/mL and the “overall trend, Chromogranin-A (CgA)” value (6 g/day vs placebo, week 24) was “stabilization”. The “overall trend, Epithelial-Derived Neutrophil-Activating Protein 78 (ENA-78)” value (6 g/day vs placebo, week 24) was “normalization”, the “overall trend, Lactoylglutathione lyase (LGL)” value (6 g/day vs placebo, week 24) was “normalization” and the “overall trend, Latency-Associated Peptide of Transforming Growth Factor beta 1 (LAP TGF-b1)” value (6 g/day vs placebo, week 24) was “normalization”. For the same compound, the “overall trend, Macrophage Colony-Stimulating Factor 1 (M-CSF)” value (6 g/day vs placebo, week 24) was “stabilization”, the “overall trend, Matrix Metalloproteinase-9, total (MMP-9, total)” value (6 g/day vs placebo, week 24) was “stabilization” and the “overall trend, Myoglobin” value (6 g/day vs placebo, week 24) was “normalization”. The “overall trend, Neuronal Cell Adhesion Molecule (Nr-CAM)” value (6 g/day vs placebo, week 24) was “normalization”, the “overall trend, Plasminogen Activator Inhibitor 1 (PAI-1)” value (6 g/day vs placebo, week 24) was “normalization” and the “overall trend, Receptor tyrosine-protein kinase erbB-3 (ErbB3)” value (6 g/day vs placebo, week 24) was “stabilization”. The “overall trend, Vascular Endothelial Growth Factor C (VEGF-C)” value (6 g/day vs placebo, week 24) was “stabilization”, the “average Δweek 0-24 (6 g/day), Chromogranin-A (CgA)” value (6 g/day, week 0 to week 24) was 5.83 ng/mL and the “average Δweek 0-24 (6 g/day), Epithelial-Derived Neutrophil-Activating Protein 78 (ENA-78)” value (6 g/day, week 0 to week 24) was -0.42 ng/mL. For the same compound, the “average Δweek 0-24 (6 g/day), Lactoylglutathione lyase (LGL)” value (6 g/day, week 0 to week 24) was -8.27 ng/mL, the “average Δweek 0-24 (6 g/day), Latency-Associated Peptide of Transforming Growth Factor beta 1 (LAP TGF-b1)” value (6 g/day, week 0 to week 24) was -1.00 ng/mL and the “average Δweek 0-24 (6 g/day), Macrophage Colony-Stimulating Factor 1 (M-CSF)” value (6 g/day, week 0 to week 24) was 0.02 ng/mL. For the same compound, the “average Δweek 0-24 (6 g/day), Matrix Metalloproteinase-9, total (MMP-9, total)” value (6 g/day, week 0 to week 24) was 444.64 ng/mL, the “average Δweek 0-24 (6 g/day), Myoglobin” value (6 g/day, week 0 to week 24) was -38.00 ng/mL and the “average Δweek 0-24 (6 g/day), Neuronal Cell Adhesion Molecule (Nr-CAM)” value (6 g/day, week 0 to week 24) was 0.02 ng/mL. The “average Δweek 0-24 (6 g/day), Plasminogen Activator Inhibitor 1 (PAI-1)” value (6 g/day, week 0 to week 24) was -0.36 ng/mL, the “average Δweek 0-24 (6 g/day), Receptor tyrosine-protein kinase erbB-3 (ErbB3)” value (6 g/day, week 0 to week 24) was -0.16 ng/mL and the “average Δweek 0-24 (6 g/day), Vascular Endothelial Growth Factor C (VEGF-C)” value (6 g/day, week 0 to week 24) was 6.43 ng/mL.
